Reference: patent US20260265538A1, “Aqueous Industrial Product Stabilized Against Microbial Contamination” (Thor GmbH, priority 2023, published 2026)

Legend:
Type in all cases: cell-based
[1] = tested on: Bacteria mixture 1 (Pseudomonas genus); test: Repetitive stress test of paints with bacteria mixture 1, semiquantitative evaluation (examples 2 and 3); details: table 3
Text: (§1) Paints 1 to 3 were mixed and homogenized with various concentrations of the guanidinium salts to be tested.
(§2) The batches obtained of the paint thus prepared were inoculated repeatedly with a mixture of different wild-type bacterial strains that are of practical relevance with regard to contamination. These bacteria had previously been isolated from commercial emulsion paints containing conventional preservatives (bacteria mixture 1, Pseudomonas genus), which are microbially contaminated in practice, and commercial so-called preservative-free alkaline emulsion paints (bacteria mixture 2, alkaliphilic bacteria of the Nesterenkonia & Alkalibacterium genus), which are microbially contaminated in practice.
(§3) • Pseudomonas spp. (Pseudomonas oleovorans group) DSM 33933 • Pseudomonas aeruginosa DSM 33935 • Pseudomonas oleovorans DSM 33936 • Pseudomonas putida DSM 33937 • Pseudomonas aeruginosa DSM 33938
(§4) The inoculum was added to the respective sample in each inoculation at 2% (v/w) as a fresh cell suspension in a physiological saline solution (0.9% NaCl). The cell count of the added inoculum in example 1 was 10^5/ml, in examples 2 to 5 10^9/ml, and in example 6 10^6/ml, each in equal portions consisting of the individual bacterial strains. The cell suspension was produced by growing the individual bacteria at 30° C. for 24 h in liquid culture on a shaker. The medium used to grow the bacteria from bacteria mixture 1 was Müller-Hinton liquid medium. Bacteria from bacteria mixture 2 were grown in Müller-Hinton liquid medium that had been adjusted to pH 9.5-9.7 with an alkaline buffer solution beforehand. After growing, the individual liquid cultures were centrifuged, and the cells were resuspended in physiological saline solution. In order to adjust the mixture to the desired cell count, the individual bacteria suspensions, if necessary, were diluted accordingly before being combined with saline solution. The cell count of the inoculum was determined in each case by chamber counting.
In examples 2 to 6, what is called a repetitive stress test with bacteria was conducted by inoculating the samples at particular time intervals repeatedly with a bacteria suspension having a cell count of 10^9/ml (2% v/w) and monitoring the evolution of the bacteria by a semiquantitative evaluation method. After each inoculation, the samples were incubated at 30° C. for 6 days (bacteria mixture 1 and 3) or 7 and 14 days (bacteria mixture 2), and after these periods bacterial infestation was evaluated semiquantitatively in each case. For this purpose, an aliquot was taken from each sample after homogenization using a sterile plastic inoculation loop (10 μl) and streaked evenly on agar plates (bacteria mixture 1 and 3 on tryptic soy agar, bacteria mixture 2 on DSMZ 31 alkaline nutrient agar). The streaked agar plates were then incubated at 30° C. for 48 h (bacteria mixture 1 and 3) or 5 to 7 days (bacteria mixture 2). After incubation, the bacterial colonies grown on the agar plates were visually evaluated and quantified according to the following scheme:
A total of 3 inoculation cycles was performed in each repetitive stress test.
Inoculation 2% (w/v) with Bacteria Mixture 1, 10^9 CFU/ml
2% (w/v) Inoculation with Bacteria Mixture 1, […]

[2] = tested on: Bacteria mixture 1 (Pseudomonas genus); test: Single inoculation of paint with bacteria mixture 1, live bacteria count (CFU/g) over 28 days (example 1); details: for Colony forming units (CFU)/g of paint after days [d]: Table 1, Paint 1
Text: as §1, §2, §3, §4
In example 1, the samples were inoculated once with a bacteria suspension (bacteria mixture 1) with a cell count of 10^5/ml (2% v/w) and the growth thereof was monitored by determining the live bacteria count per g of paint (colony-forming units, CFU/g) in the samples over 28 days. The CFU/g was determined each time by taking an aliquot (1 g) from the previously homogenized sample and running a serial decadic dilution series in physiological saline solution (0.9% NaCl) by streaking on tryptic soy agar, followed by incubation of the agar plates at 30° C. for 48 h.
Inoculation 2% (w/v) with Bacteria Mixture 1, 10^5 CFU/ml

Bacteria mixture 3 = test: Repetitive stress test of calcium carbonate slurry with bacteria mixture 3, semiquantitative evaluation (example 6); details: table 6; slurry having a pH of pH 9.4, addition of 0.075% by weight
Experimental: The calcium carbonate slurry was stored at 60° C. for 3 days prior to addition of the guanidinium salts for heat sterilization. The slurry thus treated was then admixed and homogenized with different concentrations of guanidine salts. The slurry prepared in this way was inoculated repeatedly with bacteria strains of practical relevance (bacteria mixture 3).
• Alcaligenes faecalis NCIMB 13145 • Aeromonas hydrophila DSM 6173 • Escherichia coli DSM 13631 • Burkholderia cepacia DSM 9241 • Staphylococcus aureus DSM 799 • Pseudomonas aeruginosa DSM 50071 • Pseudomonas putida DSM 13624
The inoculum was added to the respective sample in each inoculation at 2% (v/w) as a fresh cell suspension in a physiological saline solution (0.9% NaCl). […] The cell count of the inoculum was determined in each case by chamber counting.
In examples 2 to 6, what is called a repetitive stress test with bacteria was conducted by inoculating the samples at particular time intervals repeatedly with a bacteria suspension having a cell count of 10^9/ml (2% v/w) and monitoring the evolution of the bacteria by a semiquantitative evaluation method. After each inoculation, the samples were incubated at 30° C. for 6 days (bacteria mixture 1 and 3) or 7 and 14 days (bacteria mixture 2), and after these periods bacterial infestation was evaluated semiquantitatively in each case. […]

N=C(N)N.N=C(N)N.O=C(O)O [guanidine carbonate]
Stabilization of the paint against microbial infestation ([1]; paint 1, pH of pH 9.4, addition of 0.15% by weight): distinct stabilization
Stabilization of the paint against microbial infestation ([1]; paint 2, pH of pH 9.1, addition of 0.175% by weight): distinct stabilization
Colony forming units (CFU)/g of paint after days [d] ([2]; +0.01% guanidine carbonate (67 ppm guanidine), pH 8.1, 0 d): 1.2 × 10^3 CFU/g
Colony forming units (CFU)/g of paint after days [d] ([2]; +0.01% guanidine carbonate (67 ppm guanidine), pH 8.1, 2 d): 3.2 × 10^3 CFU/g
Colony forming units (CFU)/g of paint after days [d] ([2]; +0.01% guanidine carbonate (67 ppm guanidine), pH 8.1, 5 d): 3.0 × 10^5 CFU/g
Colony forming units (CFU)/g of paint after days [d] ([2]; +0.01% guanidine carbonate (67 ppm guanidine), pH 8.1, 28 d): 2.8 × 10^6 CFU/g
Colony forming units (CFU)/g of paint after days [d] ([2]; +0.025% guanidine carbonate (164 ppm guanidine), pH 8.3, 0 d): 1.2 × 10^3 CFU/g
Colony forming units (CFU)/g of paint after days [d] ([2]; +0.025% guanidine carbonate (164 ppm guanidine), pH 8.3, 2 d): 1.1 × 10^3 CFU/g
Colony forming units (CFU)/g of paint after days [d] ([2]; +0.025% guanidine carbonate (164 ppm guanidine), pH 8.3, 5 d): 1.0 × 10^5 CFU/g
Colony forming units (CFU)/g of paint after days [d] ([2]; +0.025% guanidine carbonate (164 ppm guanidine), pH 8.3, 28 d): 2.3 × 10^6 CFU/g
Colony forming units (CFU)/g of paint after days [d] ([2]; +0.05% guanidine carbonate (328 ppm guanidine), pH 8.5, 0 d): 9.0 × 10^2 CFU/g
Colony forming units (CFU)/g of paint after days [d] ([2]; +0.05% guanidine carbonate (328 ppm guanidine), pH 8.5, 2 d): <5 CFU/g
Colony forming units (CFU)/g of paint after days [d] ([2]; +0.05% guanidine carbonate (328 ppm guanidine), pH 8.5, 5 d): <5 CFU/g
Colony forming units (CFU)/g of paint after days [d] ([2]; +0.05% guanidine carbonate (328 ppm guanidine), pH 8.5, 28 d): <5 CFU/g
Colony forming units (CFU)/g of paint after days [d] ([2]; +0.075% guanidine carbonate (492 ppm guanidine), pH 8.7, 0 d): 1.1 × 10^3 CFU/g
Colony forming units (CFU)/g of paint after days [d] ([2]; +0.075% guanidine carbonate (492 ppm guanidine), pH 8.7, 2 d): <5 CFU/g
Colony forming units (CFU)/g of paint after days [d] ([2]; +0.075% guanidine carbonate (492 ppm guanidine), pH 8.7, 5 d): <5 CFU/g
Colony forming units (CFU)/g of paint after days [d] ([2]; +0.075% guanidine carbonate (492 ppm guanidine), pH 8.7, 28 d): <5 CFU/g
Colony forming units (CFU)/g of paint after days [d] ([2]; +0.1% guanidine carbonate (656 ppm guanidine), pH 9.0, 0 d): 1.2 × 10^3 CFU/g
Colony forming units (CFU)/g of paint after days [d] ([2]; +0.1% guanidine carbonate (656 ppm guanidine), pH 9.0, 2 d): <5 CFU/g
Colony forming units (CFU)/g of paint after days [d] ([2]; +0.1% guanidine carbonate (656 ppm guanidine), pH 9.0, 5 d): <5 CFU/g
Colony forming units (CFU)/g of paint after days [d] ([2]; +0.1% guanidine carbonate (656 ppm guanidine), pH 9.0, 28 d): <5 CFU/g
Stabilization of the paint against microbial infestation ([2]; table 1, addition of 0.05% by weight to a paint having a pH of greater than or equal to pH 8.5): distinct stabilization
Stabilization of the slurry against microbial infestation (Bacteria mixture 3): distinct stabilization
